Measured values taken from paper PMC8703317, “2-(Piperidin-4-yl)acetamides as Potent Inhibitors of Soluble Epoxide Hydrolase with Anti-Inflammatory Activity” (Pharmaceuticals, 2021).

How the values were obtained:
[1] = target: T1, human sEH (Homo sapiens, UniProt P34913); assay: fluorescent-based sEH inhibition assay, recombinant human sEH; assay type: biochemical; settings: baculovirus expressed recombinant human sEH, average of three replicates
T1 construct: made in house; host or cells: baculovirus expression system (insect cells implied)
T1 sequence (P34913 1-555): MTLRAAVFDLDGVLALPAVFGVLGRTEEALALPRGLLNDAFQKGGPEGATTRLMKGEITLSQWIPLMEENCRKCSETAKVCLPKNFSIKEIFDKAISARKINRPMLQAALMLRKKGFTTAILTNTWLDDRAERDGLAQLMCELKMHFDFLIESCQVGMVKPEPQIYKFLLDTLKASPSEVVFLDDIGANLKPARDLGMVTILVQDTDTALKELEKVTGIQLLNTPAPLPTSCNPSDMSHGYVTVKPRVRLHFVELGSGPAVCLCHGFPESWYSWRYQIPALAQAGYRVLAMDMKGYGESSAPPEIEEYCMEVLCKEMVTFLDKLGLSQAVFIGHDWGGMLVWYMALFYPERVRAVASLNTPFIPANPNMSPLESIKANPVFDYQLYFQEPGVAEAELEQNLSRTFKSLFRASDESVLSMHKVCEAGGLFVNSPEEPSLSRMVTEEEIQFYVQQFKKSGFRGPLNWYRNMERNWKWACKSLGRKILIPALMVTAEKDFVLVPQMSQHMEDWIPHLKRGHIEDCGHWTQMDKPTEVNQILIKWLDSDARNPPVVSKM
Protocol: (§1) The potency of all the new compounds as inhibitors of the human and murine sEH was tested using a previously reported sensitive fluorescent-based assay using baculovirus expressed recombinant human and mouse sEH [28].

[2] = microsomal stability, mouse microsomes; assay type: in vitro ADME; settings: pooled murine microsomes, pH 7.4; 60 min incubation with mouse microsomes, NADPH, 37 °C
Protocol: (§2) The human and murine pooled microsomes employed were purchased from Tebu-Xenotech (Barcelona, Spain). The compound was incubated at 37 °C with the microsomes in a 50 mM phosphate buffer (pH = 7.4) containing 3 mM MgCl2, 1 mM NADP, 10 mM glucose-6-phosphate and 1 U/mL glucose-6-phosphate-dehydrogenase. Samples (75 µL) were taken from each well at 0, 10, 20, 40 and 60 min and transferred to a plate containing 4 °C 75 µL acetonitrile and 30 µL of 0.5% formic acid in water were added for improving the chromatographic conditions. The plate was centrifuged (46000 g, 30 min) and supernatants were taken and analyzed in a UPLC-MS/MS (Xevo-TQD, Waters) by employing a BEH C18 column and an isocratic gradient of 0.1% formic acid in water: 0.1% formic acid acetonitrile (60:40). The metabolic stability of the compounds was calculated from the logarithm of the remaining compounds at each of the time points studied.

[3] = target: T2, murine sEH (Mus musculus, UniProt P34914); assay: fluorescent-based sEH inhibition assay, recombinant mouse sEH; assay type: biochemical; settings: baculovirus expressed recombinant mouse sEH, average of three replicates
T2 construct: made in house; host or cells: baculovirus expression system (insect cells implied)
T2 sequence (P34914 1-554): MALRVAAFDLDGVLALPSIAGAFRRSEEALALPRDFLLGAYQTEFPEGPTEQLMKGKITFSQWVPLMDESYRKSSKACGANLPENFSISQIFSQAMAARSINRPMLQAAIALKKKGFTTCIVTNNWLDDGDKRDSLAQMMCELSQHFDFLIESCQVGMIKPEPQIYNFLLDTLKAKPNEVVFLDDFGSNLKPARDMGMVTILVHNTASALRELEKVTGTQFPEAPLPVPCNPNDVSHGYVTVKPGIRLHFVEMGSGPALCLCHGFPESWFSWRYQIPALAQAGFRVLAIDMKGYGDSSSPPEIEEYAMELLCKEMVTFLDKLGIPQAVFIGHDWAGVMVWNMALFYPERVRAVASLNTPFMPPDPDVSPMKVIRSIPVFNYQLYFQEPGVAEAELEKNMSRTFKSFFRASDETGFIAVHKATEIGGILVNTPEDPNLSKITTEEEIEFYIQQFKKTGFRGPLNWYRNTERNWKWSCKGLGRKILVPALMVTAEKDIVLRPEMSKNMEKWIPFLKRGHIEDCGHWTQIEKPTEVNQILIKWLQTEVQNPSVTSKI
Protocol: as §1

[4] = microsomal stability, human microsomes; assay type: in vitro ADME; settings: pooled human microsomes, pH 7.4; 60 min incubation with human microsomes, NADPH, 37 °C
Protocol: as §2

[5] = design: method as in PMID 33945278; settings: cited from earlier work; for Microsomal Stability Mouse % Remaining at 1 h: 60 min incubation with mouse microsomes, NADPH, 37 °C
[6] = design: method as in PMID 33945278; settings: 60 min incubation with human microsomes, NADPH, 37 °C; cited from earlier work
[7] = test system: microglial BV2 cells activated with LPS; assay: nitric oxide generation (nitrite, Griess) in LPS-activated BV2 microglial cells; assay type: cell-based; settings: compound at 100 µM, LPS, 24 h, percentage of LPS value
Protocol: Inflammatory changes were determined by the measure of nitric oxide generation, as the endpoint of iNOS activation, in microglial BV2 cells. BV2 cells (HyperCLDB, Banca Biologica e Cell Factory, ICLC ATL 03001) were grown in RPMI 1640 medium, supplemented with L-glutamine 2 mM, gentamycin 50 µM and 10% FBS. For experiments, cells were seeded in 96-well plates at 2 × 10^5 cells/mL, 100 µL/well. […] After 1 h of incubation, the cells were treated with the pro-inflammatory chemical LPS (0.1 μg/mL or 1 μg/mL; strain E. coli […], Sigma-Aldrich, L-2654, batch #120M4028) and further incubated for 24 h. TPPU at 100 µM was also assayed as a reference anti-inflammatory compound. DMSO 0.1% was used as vehicle. Cells were maintained at 37 °C in a humidified incubator with 5% CO2 throughout the procedures. Nitric oxide released to the culture medium was measured by the colorimetric Griess reaction that detects nitrite (NO2^–), a stable reaction product of nitric oxide and molecular oxygen. Briefly, 50 µL of conditioned medium were incubated with 50 µL of Griess reagent for 10 min at room temperature. Optical density was measured at 540 nm. Nitrite concentration was determined from a sodium nitrite standard curve. Results were normalized by cell protein content in the well and expressed as a percentage of the average maximal values given by the pro-inflammatory agent (LPS 1 µg/mL). Each treatment was performed in 3–5 wells and the whole experiment was repeated 3–4 times in cultures of different cell passage. Data were analyzed by ANOVA followed by Tukey’s multiple comparisons test.

SMILES	IC50 [1] [nM]	remaining at 1 h [2] [%]	IC50 [3] [nM]	remaining at 1 h [4] [%]	melting point [°C]	Microsomal Stability Mouse % Remaining at 1 h [5] [%]	Microsomal Stability Human % Remaining at 1 h [6] [%]	nitric oxide release induced by LPS, reduced to [7]	microsomal stability (% remaining at 1 h) mouse ([5]; Figure 2 legend) [%]
CC(=O)N1CCC(CC(=O)NC23CC4CC(C)(CC(C2)c2ccccc24)C3)CC1 [6a, 2-(1-Acetylpiperidin-4-yl)-N-(9-methyl-5,6,8,9,10,11-hexahydro-7H-5,9:7,11-dimethanobenzo[9]annulen-7-yl)acetamide]	34.5	0	0.4	0.3	–	–	–	–	–
CC(C)S(=O)(=O)N1CCC(CC(=O)NC23CC4CC(C)(CC(C2)c2ccccc24)C3)CC1 [6b, 2-[1-(Isopropylsulfonyl)piperidin-4-yl]-N-(9-methyl-5,6,8,9,10,11-hexahydro-7H-5,9:7,11-dimethanobenzo[9]annulen-7-yl)acetamide]	30.2	0	0.4	0	–	–	–	–	–
CC(C)S(=O)(=O)N1CCC(CC(=O)NC23CC4CC(F)(CC(C2)c2ccccc24)C3)CC1 [6c, N-(9-Fluoro-5,6,8,9,10,11-hexahydro-7H-5,9:7,11-dimethanobenzo[9]annulen-7-yl)-2-(1-(isopropylsulfonyl)piperidin-4-yl)acetamide]	1.6	5.1	0.4	5.5	192 to 193	–	–	–	–
CC(C)S(=O)(=O)N1CCC(CC(=O)NC23CC4CC(Cl)(CC(C2)c2ccccc24)C3)CC1 [6d, N-(9-Chloro-5,6,8,9,10,11-hexahydro-7H-5,9:7,11-dimethanobenzo[9]annulen-7-yl)-2-(1-(isopropylsulfonyl)piperidin-4-yl)acetamide]	1	1.4	0.4	7	163 to 164	–	–	–	–
CC(C)S(=O)(=O)N1CCC(CC(=O)NC23CC4CC(C2)c2ccccc2C(C4)C3)CC1 [6e, N-(5,6,8,9,10,11-Hexahydro-7H-5,9:7,11-dimethanobenzo[9]annulen-7-yl)-2-(1-(isopropylsulfonyl)piperidin-4-yl)acetamide]	2.8	0.2	0.5	0.6	136 to 137	–	–	–	–
[2H]C12CC3CC(NC(=O)CC4CCN(S(=O)(=O)C(C)C)CC4)(CC(C1)c1ccccc13)C2 [6f, N-(5,6,8,9,10,11-Hexahydro-7H-5,9:7,11-dimethanobenzo[9]annulen-7-yl-9-d)-2-(1-(isopropylsulfonyl)piperidin-4-yl)acetamide]	2.4	0.5	0.4	1.3	138 to 139	–	–	–	–
CC12CC3CC(NC(=O)CC4CCN(Cc5ccccc5)CC4)(CC(C1)c1ccccc13)C2 [6g, 2-(1-Benzylpiperidin-4-yl)-N-(9-methyl-5,6,8,9,10,11-hexahydro-7H-5,9:7,11-dimethanobenzo[9]annulen-7-yl)acetamide]	37.5	0.1	3.3	0.1	–	–	–	–	–
O=C(CC1CCN(Cc2ccccc2)CC1)NC12CC3CC(F)(CC(C1)c1ccccc13)C2 [6h, 2-(1-Benzylpiperidin-4-yl)-N-(9-fluoro-5,6,8,9,10,11-hexahydro-7H-5,9:7,11-dimethanobenzo[9]annulen-7-yl)acetamide]	21.4	0.1	12.9	0.3	164 to 165	–	–	–	–
CC12CC3CC(NC(=O)N[C@H]4CC[C@H](Oc5ccc(C(=O)O)cc5)CC4)(CC(C1)c1ccccc13)C2 [11a]	–	–	–	–	–	10	70	–	–
O=C(NC12CC3CC(F)(CC(C1)c1ccccc13)C2)N[C@H]1CC[C@H](Oc2ccc(C(=O)O)cc2)CC1 [11b]	–	–	–	–	–	36	77	–	–
O=C(NC12CC3CC(Cl)(CC(C1)c1ccccc13)C2)N[C@H]1CC[C@H](Oc2ccc(C(=O)O)cc2)CC1 [11c]	–	–	–	–	–	60	89	–	–
CCC(=O)N1CCC(NC(=O)Nc2ccc(OC(F)(F)F)cc2)CC1 [TPPU, reference compound]	–	–	–	–	–	–	–	approximately 50%	–
CC(=O)N1CCC(NC(=O)NC23CC4CC(C)(CC(C2)c2ccccc24)C3)CC1 [compound 1, reference compound]	–	1	–	1	–	–	–	–	0.5

Now from value to compound, other results behind:

IC50 [1] [nM]	remaining at 1 h [2] [%]	IC50 [3] [nM]	remaining at 1 h [4] [%]	melting point [°C]	SMILES	Microsomal Stability Mouse % Remaining at 1 h [5] [%]	Microsomal Stability Human % Remaining at 1 h [6] [%]	nitric oxide release induced by LPS, reduced to [7]	microsomal stability (% remaining at 1 h) mouse ([5]; Figure 2 legend) [%]
0.6	0.1	0.7	0.1	229 to 230	CC(=O)c1ccc(N2CCC(CC(=O)NC34CC5CC(F)(CC(C3)c3ccccc35)C4)CC2)cc1 [10a, 2-(1-(4-Acetylphenyl)piperidin-4-yl)-N-(9-fluoro-5,6,8,9,10,11-hexahydro-7H-5,9:7,11-dimethanobenzo[9]annulen-7-yl)acetamide]	–	–	–	–
3.4	0.1	0.4	0	180 to 181	N#Cc1ccc(N2CCC(CC(=O)NC34CC5CC(F)(CC(C3)c3ccccc35)C4)CC2)cc1 [10b, 2-(1-(4-Cyanophenyl)piperidin-4-yl)-N-(9-fluoro-5,6,8,9,10,11-hexahydro-7H-5,9:7,11-dimethanobenzo[9]annulen-7-yl)acetamide]	–	–	–	–
0.4	2	0.2	11	190 to 191	O=C(CC1CCN(c2ccc(C(=O)O)cc2C2CC2)CC1)NC12CC3CC(F)(CC(C1)c1ccccc13)C2 [10d, 3-Cyclopropyl-4-(4-(2-((9-fluoro-5,6,8,9,10,11-hexahydro-7H-5,9:7,11-dimethanobenzo[9]annulen-7-yl)amino)-2-oxoethyl)piperidin-1-yl)benzoic Acid]	–	–	–	–
1.7	6	0.7	52	–	O=C(CC1CCN(c2ccc(C(=O)O)cc2)CC1)NC12CC3CC(Cl)(CC(C1)c1ccccc13)C2 [10e]	–	–	–	–
